Reference: the supplement of paper PMC10307832

Key:
Assay in all cases: relative viability (nuclei count vs DMSO), 5 days (fraction); higher = more cells survive
[1] = compound: C=CCn1c(=O)c2cnc(Nc3ccc(N4CCN(C)CC4)cc3)nc2n1-c1cccc(C(C)(C)O)n1 [Adavosertib] + O=C(c1cc(Cc2n[nH]c(=O)c3ccccc23)ccc1F)N1CCN(C(=O)C2CC2)CC1 [Olaparib] (partner 8 µM)
Method in brief: (§1)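 Lung cancer cell lines were pin-tool dosed in 1536-well plates on the day after seeding, with either a lone drug or a fixed anchor-drug dose plus five library-drug doses (not always all listed) in √10 steps. Nuclei were counted on 4× images after 5 days. Relative viability is the ratio of treated-well to vehicle-well nuclei counts, with each value a median of duplicate plates.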

[2] = compound: COc1nc(N)nc2c1ncn2[C@@H]1O[C@H](CO)[C@@H](O)[C@@H]1O [Nelarabine] + Cc1cc(Nc2cc(N3CCN(C)CC3)nc(Sc3ccc(NC(=O)C4CC4)cc3)n2)n[nH]1 [Tozasertib] (partner 0.1 µM)
Method in brief: as §1

[3] = compound: C=CCn1c(=O)c2cnc(Nc3ccc(N4CCN(C)CC4)cc3)nc2n1-c1cccc(C(C)(C)O)n1 [Adavosertib] + CS(=O)(=O)CCNCc1ccc(-c2ccc3ncnc(Nc4ccc(OCc5cccc(F)c5)c(Cl)c4)c3c2)o1 [Lapatinib] (partner 2 µM)
Method in brief: as §1

[4] = compound: COc1nc(N)nc2c1ncn2[C@@H]1O[C@H](CO)[C@@H](O)[C@@H]1O [Nelarabine] + Nc1ncn([C@H]2C[C@H](O)[C@@H](CO)O2)c(=O)n1 [Decitabine] (partner 2 µM)
Method in brief: as §1

## NCI-H1944
[1]; first compound 0.01 µM
  relative viability: 0.41
[1]; first compound 0.03162 µM
  relative viability: 0.384
[1]; first compound 0.1 µM
  relative viability: 0.393
[1]; first compound 0.3162 µM
  relative viability: 0.403
[2]; first compound 0.01 µM
  relative viability: 0.285
[2]; first compound 0.03162 µM
  relative viability: 0.239
[2]; first compound 0.1 µM
  relative viability: 0.252
[2]; first compound 0.3162 µM
  relative viability: 0.27
[2]; first compound 1 µM
  relative viability: 0.253
[3]; first compound 0.01 µM
  relative viability: 0.765
[3]; first compound 0.03162 µM
  relative viability: 0.709
[3]; first compound 0.1 µM
  relative viability: 0.908
[3]; first compound 0.3162 µM
  relative viability: 0.783
[4]; first compound 0.01 µM
  relative viability: 0.423
[4]; first compound 0.03162 µM
  relative viability: 0.449
[4]; first compound 0.1 µM
  relative viability: 0.457
[4]; first compound 0.3162 µM
  relative viability: 0.416
[4]; first compound 1 µM
  relative viability: 0.427
